From ChEMBL document CHEMBL1201862, “PubChem BioAssay data set” (2004)
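Where inhibition never reached the appropriate level, the endpoint shown equals the highest concentration tested. Otherwise, values were interpolated linearly from a five-concentration, 48-hour dose response in 96-well plates. GI50 marks 50% less growth.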 Activity calls are given as the source filed them. No stated cut-off is given here; in the data, active = GI50 up to about 1.1 µM and inactive = higher.

Tests used:
Assay in all cases: growth of human tumour cells (NCI), 48 h
HCT-116 = test system: HCT-116
SF-295 = test system: SF-295
IGROV-1 = test system: IGROV-1
SN12C = test system: SN12C
HOP-92 = test system: HOP-92
MOLT-4 = test system: MOLT-4
A498 = test system: A498
SF-268 = test system: SF-268
COLO 205 = test system: COLO 205
LOX IMVI = test system: LOX IMVI
MCF7 = test system: MCF7
NCI/ADR-RES = test system: NCI/ADR-RES
OVCAR-4 = test system: OVCAR-4
HL-60 = test system: HL-60
UACC-62 = test system: UACC-62
MDA-N = test system: MDA-N
SNB-75 = test system: SNB-75
CAKI-1 = test system: CAKI-1
Hs-578T = test system: Hs-578T
NCI-H23 = test system: NCI-H23
MDA-MB-231 = test system: MDA-MB-231
RPMI-8226 = test system: RPMI-8226
SK-OV-3 = test system: SK-OV-3
PC-3 = test system: PC-3
M14 = test system: M14
TK-10 = test system: TK-10
DU-145 = test system: DU-145
ACHN = test system: ACHN
HT-29 = test system: HT-29
HOP-62 = test system: HOP-62
SNB-19 = test system: SNB-19
HCT-15 = test system: HCT-15
U-251 = test system: U-251
CCRF-CEM = test system: CCRF-CEM
T47D = test system: T47D
EKVX = test system: EKVX
BT-549 = test system: BT-549
SK-MEL-5 = test system: SK-MEL-5
MDA-MB-435 = test system: MDA-MB-435
SR = test system: SR
SK-MEL-28 = test system: SK-MEL-28
K562 = test system: K562
KM12 = test system: KM12
UACC-257 = test system: UACC-257
OVCAR-8 = test system: OVCAR-8
A549 = test system: A549
HCC 2998 = test system: HCC 2998
786-0 = test system: 786-0
SK-MEL-2 = test system: SK-MEL-2
NCI-H226 = test system: NCI-H226
NCI-H522 = test system: NCI-H522
OVCAR-5 = test system: OVCAR-5
UO-31 = test system: UO-31
SW-620 = test system: SW-620
OVCAR-3 = test system: OVCAR-3
RXF 393 = test system: RXF 393
Malme-3M = test system: Malme-3M

COc1cccc(N2C(=O)/C(=C\c3ccccc3)SC2c2cc(OC)c(OC)c(OC)c2)c1 (configuration not stated)
GI50 (HCT-116): 30.1 µM (inactive) | GI50 (SF-295): 35.5 µM (inactive) | GI50 (IGROV-1): 31.3 µM (inactive) | GI50 (SN12C): 52 µM (inactive) | GI50 (HOP-92): 27.7 µM (inactive) | GI50 (MOLT-4): 27.5 µM (inactive) | GI50 (A498): 28.8 µM (inactive) | GI50 (SF-268): 41.4 µM (inactive) | GI50 (COLO 205): 39.7 µM (inactive) | GI50 (LOX IMVI): 37.8 µM (inactive) | GI50 (MCF7): 42.4 µM (inactive) | GI50 (NCI/ADR-RES): 41.9 µM (inactive) | GI50 (OVCAR-4): 46.5 µM (inactive) | GI50 (HL-60): 36 µM (inactive) | GI50 (UACC-62): 24.1 µM (inactive) | GI50 (MDA-N): 17.6 µM (inactive) | GI50 (SNB-75): 18 µM (inactive) | GI50 (CAKI-1): 70 µM (inactive) | GI50 (Hs-578T): 30.4 µM (inactive) | GI50 (NCI-H23): 52.6 µM (inactive) | GI50 (MDA-MB-231): 98.2 µM (inactive) | GI50 (RPMI-8226): 32.1 µM (inactive) | GI50 (SK-OV-3): 35.6 µM (inactive) | GI50 (PC-3): 46.5 µM (inactive) | GI50 (M14): 40.3 µM (inactive) | GI50 (TK-10): > 100 µM (inactive) | GI50 (DU-145): 41.2 µM (inactive) | GI50 (ACHN): > 100 µM (inactive) | GI50 (HT-29): 45.2 µM (inactive) | GI50 (HOP-62): 37.6 µM (inactive) | GI50 (SNB-19): 77.6 µM (inactive) | GI50 (HCT-15): 44.3 µM | GI50 (U-251): 33.3 µM (inactive) | GI50 (CCRF-CEM): 37.8 µM (inactive) | GI50 (T47D): 17.4 µM (inactive) | GI50 (EKVX): 44.2 µM (inactive) | GI50 (BT-549): 47.9 µM (inactive) | GI50 (SK-MEL-5): 42.9 µM (inactive) | GI50 (MDA-MB-435): 22.6 µM (inactive) | GI50 (SR): 26.3 µM (inactive) | GI50 (SK-MEL-28): 96.2 µM (inactive) | GI50 (K562): 26.9 µM (inactive) | GI50 (KM12): 36.5 µM (inactive) | GI50 (UACC-257): > 100 µM (inactive) | GI50 (OVCAR-8): 44.1 µM (inactive) | GI50 (A549): 64.1 µM (inactive) | GI50 (HCC 2998): 32.3 µM (inactive) | GI50 (786-0): 40.9 µM (inactive) | GI50 (SK-MEL-2): 62.1 µM (inactive) | GI50 (NCI-H226): > 100 µM (inactive) | GI50 (NCI-H522): 22.2 µM (inactive) | GI50 (OVCAR-5): > 100 µM (inactive) | GI50 (UO-31): 43.2 µM (inactive)

CC(C)(C)OC(=O)CCC1NC(=O)[C@@H]2Cc3c([nH]c4ccccc34)C(C3CCCCC3)N2C1=O (some centres not stated)
GI50 (HCT-116): 27 µM (inactive) | GI50 (SF-295): 23.1 µM (inactive) | GI50 (IGROV-1): 36.8 µM (inactive) | GI50 (SN12C): 22.4 µM (inactive) | GI50 (HOP-92): 33.2 µM (inactive) | GI50 (MOLT-4): 12.4 µM (inactive) | GI50 (A498): 60.5 µM (inactive) | GI50 (SF-268): 31.4 µM (inactive) | GI50 (COLO 205): 17.9 µM (inactive) | GI50 (LOX IMVI): 26.4 µM (inactive) | GI50 (MCF7): 26.7 µM (inactive) | GI50 (NCI/ADR-RES): 48.8 µM (inactive) | GI50 (OVCAR-4): 28.8 µM (inactive) | GI50 (SW-620): 44.4 µM (inactive) | GI50 (HL-60): 16.6 µM (inactive) | GI50 (UACC-62): 45.3 µM (inactive) | GI50 (MDA-N): 24.5 µM (inactive) | GI50 (CAKI-1): 37.1 µM (inactive) | GI50 (Hs-578T): 20.8 µM (inactive) | GI50 (OVCAR-3): 26.2 µM (inactive) | GI50 (NCI-H23): 39.6 µM (inactive) | GI50 (MDA-MB-231): 22 µM (inactive) | GI50 (RPMI-8226): 16.4 µM (inactive) | GI50 (SK-OV-3): 44.6 µM (inactive) | GI50 (PC-3): 18.8 µM (inactive) | GI50 (M14): 27.4 µM (inactive) | GI50 (TK-10): 34.7 µM (inactive) | GI50 (DU-145): 57.3 µM (inactive) | GI50 (ACHN): 33.3 µM (inactive) | GI50 (HT-29): 18.6 µM (inactive) | GI50 (HOP-62): 35.6 µM (inactive) | GI50 (SNB-19): 41.9 µM (inactive) | GI50 (RXF 393): 20 µM (inactive) | GI50 (HCT-15): 34.6 µM | GI50 (U-251): 27 µM (inactive) | GI50 (T47D): 27.9 µM (inactive) | GI50 (EKVX): 41.7 µM (inactive) | GI50 (BT-549): 48.8 µM (inactive) | GI50 (Malme-3M): 29.1 µM (inactive) | GI50 (SK-MEL-5): 31 µM (inactive) | GI50 (MDA-MB-435): 30.8 µM (inactive) | GI50 (SR): 15.5 µM (inactive) | GI50 (SK-MEL-28): 68.9 µM (inactive) | GI50 (K562): 32.4 µM (inactive) | GI50 (KM12): 24.9 µM (inactive) | GI50 (UACC-257): 29.4 µM (inactive) | GI50 (OVCAR-8): 50.4 µM (inactive) | GI50 (A549): 26.4 µM (inactive) | GI50 (786-0): 35.3 µM (inactive) | GI50 (SK-MEL-2): 22.8 µM (inactive) | GI50 (NCI-H226): 36.2 µM (inactive) | GI50 (NCI-H522): 30.3 µM (inactive) | GI50 (OVCAR-5): 53.2 µM (inactive) | GI50 (UO-31): 41.5 µM (inactive)
